Experimental data reported in US10308644B2, “Heterocyclic compounds as immunomodulators” (Incyte Corporation, priority 2016, dated 2019).

biological target: PD-1/PD-L1 (Homo sapiens (Human), UniProt Q9NZQ7); assay: PD-1/PD-L1 Homogeneous Time-Resolved Fluorescence (HTRF) Binding Assay; conditions: recombinant human PD-1 (3 nM) and PD-L1 (10 nM), 25° C., PBS pH 7.4
Procedure, shortened: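 Fc-tagged human PD-1 (25-167, 3 nM) and His-tagged PD-L1 (19-238, 10 nM) preincubated with inhibitor 40 min in PBS pH 7.4, 0.05% Tween-20, 0.1% BSA, 1% DMSO, 25 °C. Binding detected by HTRF (Eu anti-IgG/APC anti-His, 665/620 nm) after 60 min; IC50 from percent control activity.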

Sequence of PD-1/PD-L1 (Q9NZQ7 19-238): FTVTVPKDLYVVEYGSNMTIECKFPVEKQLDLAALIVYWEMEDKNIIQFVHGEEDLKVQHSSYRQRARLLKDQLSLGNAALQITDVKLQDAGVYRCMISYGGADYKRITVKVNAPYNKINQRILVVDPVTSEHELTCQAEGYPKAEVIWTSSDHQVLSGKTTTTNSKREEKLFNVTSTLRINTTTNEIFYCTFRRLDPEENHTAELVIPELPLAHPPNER

| IC50 [µM] | SMILES |
| --- | --- |
| ≤ 0.01 | Cc1c(-c2nc3cc(CN4CC[C@@H](C(=O)O)C4)cc(Cl)c3o2)cccc1-c1cccc(-c2nc3c(s2)CN(C(C)CO)CC3)c1C (stereo partly drawn) [Example 62, (3R)-1-((7-chloro-2-(3′-(5-(1-hydroxypropan-2-yl)-4,5,6,7-tetrahydrothiazolo[5,4-c]pyridin-2-yl)-2,2′-dimethyl-[1,1′-biphenyl]-3-yl)benzo[d]oxazol-5-yl)methyl)pyrrolidine-3-carboxylic acid] |
| ≤ 0.01 | CNCc1cnc2c(Nc3cccc(-c4cccc(-c5nc6cc(CN7CC[C@@](C)(C(=O)O)C7)cc(C#N)c6o5)c4C)c3C)nccc2c1 [Example 197, (R)-1-((7-cyano-2-(2,2′-dimethyl-3′-(3-((methylamino)methyl)-1,7-naphthyridin-8-ylamino)biphenyl-3-yl)benzo[d]oxazol-5-yl)methyl)-3-methylpyrrolidine-3-carboxylic acid] |
| ≤ 0.01 | Cc1c(-c2nc3cc(CN4CC[C@H](C(=O)O)C4)cc(C#N)c3o2)cccc1-c1cccc(Nc2nccc3cc(CN4CC[C@@H](O)C4)cnc23)c1Cl [Example 83, (S)-1-((2-(2′-chloro-3′-(3-(((R)-3-hydroxypyrrolidin-1-yl)methyl)-1,7-naphthyridin-8-ylamino)-2-methylbiphenyl-3-yl)-7-cyanobenzo[d]oxazol-5-yl)methyl)pyrrolidine-3-carboxylic acid] |
| ≤ 0.01 | Cc1c(-c2nc3cc(CN4CC[C@@H](C(=O)O)C4)cc(C#N)c3o2)cccc1-c1cccc(-c2nc3c(s2)CN(C(=O)CN2CC[C@@H](O)C2)C3)c1C [Example 111, (R)-1-((7-cyano-2-(3′-(5-(2-((R)-3-hydroxypyrrolidin-1-yl)acetyl)-5,6-dihydro-4H-pyrrolo[3,4-d]thiazol-2-yl)-2,2′-dimethylbiphenyl-3-yl)benzo[d]oxazol-5-yl)methyl)pyrrolidine-3-carboxylic acid] |
| ≤ 0.01 | Cc1c(-c2nc3cc(CN4CC[C@H](C(=O)O)C4)cc(C#N)c3o2)cccc1-c1cccc(-c2nc3c(s2)CN(CCO)CC3)c1C [Example 67, (S)-1-((7-cyano-2-(3′-(5-(2-hydroxyethyl)-4,5,6,7-tetrahydrothiazolo[5,4-c]pyridin-2-yl)-2,2′-dimethyl-[1,1′-biphenyl]-3-yl)benzo[d]oxazol-5-yl)methyl)pyrrolidine-3-carboxylic acid] |
| ≤ 0.01 | Cc1c(Nc2nccc3cc(CNC[C@H](C)O)cnc23)cccc1-c1cccc(-c2nc3cc(CN4CCC(C(=O)O)CC4)cc(C#N)c3o2)c1C [Example 204, (S)-1-((7-cyano-2-(3′-(3-((2-hydroxypropylamino)methyl)-1,7-naphthyridin-8-ylamino)-2,2′-dimethylbiphenyl-3-yl)benzo[d]oxazol-5-yl)methyl)piperidine-4-carboxylic acid] |
| ≤ 0.01 | Cc1c(-c2nc3c(o2)CN(C(=O)CN2CC[C@H](O)C2)C3)cccc1-c1cccc(-c2nc3cc(CN4CC[C@@H](C(=O)O)C4)cc(C#N)c3o2)c1C [Example 128, (R)-1-((7-cyano-2-(3′-(5-(2-((S)-3-hydroxypyrrolidin-1-yl)acetyl)-5,6-dihydro-4H-pyrrolo[3,4-d]oxazol-2-yl)-2,2′-dimethyl-[1,1′-biphenyl]-3-yl)benzo[d]oxazol-5-yl)methyl)pyrrolidine-3-carboxylic acid] |
| ≤ 0.01 | Cc1c(Nc2nccc3cc(CN(C)CCO)cnc23)cccc1-c1cccc(-c2nc3cc(CN4CC[C@@](C)(C(=O)O)C4)cc(C#N)c3o2)c1C [Example 190, (R)-1-((7-cyano-2-(3′-(3-(((2-hydroxyethyl)(methyl)amino)methyl)-1,7-naphthyridin-8-ylamino)-2,2′-dimethylbiphenyl-3-yl)benzo[d]oxazol-5-yl)methyl)-3-methylpyrrolidine-3-carboxylic acid] |
| ≤ 0.01 | Cc1c(-c2nc3c(o2)CN(C(=O)CN2CC(O)C2)C3)cccc1-c1cccc(-c2nc3cc(CN4CC[C@@H](C(=O)O)C4)cc(C#N)c3o2)c1C [Example 127, (R)-1-((7-cyano-2-(3′-(5-(2-(3-hydroxyazetidin-1-yl)acetyl)-5,6-dihydro-4H-pyrrolo[3,4-d]oxazol-2-yl)-2,2′-dimethyl-[1,1′-biphenyl]-3-yl)benzo[d]oxazol-5-yl)methyl)pyrrolidine-3-carboxylic acid] |
| ≤ 0.01 | Cc1c(Nc2nccc3cc(CN4CCCC4)cnc23)cccc1-c1cccc(-c2nc3cc(CN4CC[C@@](C)(C(=O)O)C4)cc(C#N)c3o2)c1C [Example 193, (R)-1-((7-cyano-2-(2,2′-dimethyl-3′-(3-(pyrrolidin-1-ylmethyl)-1,7-naphthyridin-8-ylamino)biphenyl-3-yl)benzo[d]oxazol-5-yl)methyl)-3-methylpyrrolidine-3-carboxylic acid] |
| ≤ 0.01 | Cc1c(Nc2nccc3cc(CN4CC[C@@H](O)C4)cnc23)cccc1-c1cccc(-c2nc3cc(CN4CC[C@H](CC(=O)O)C4)cc(C#N)c3o2)c1C [Example 173, 2-((R)-1-((7-cyano-2-(3′-(3-(((R)-3-hydroxypyrrolidin-1-yl)methyl)-1,7-naphthyridin-8-ylamino)-2,2′-dimethylbiphenyl-3-yl)benzo[d]oxazol-5-yl)methyl)pyrrolidin-3-yl)acetic acid] |
| ≤ 0.01 | Cc1c(Nc2nccc3cc(C4CCCN4)cnc23)cccc1-c1cccc(-c2nc3cc(CN4CC[C@@H](C(=O)O)C4)cc(C#N)c3o2)c1C (single isomer, unassigned) [Example 99] |
| ≤ 0.01 | Cc1c(Nc2nccc3cc(CNC[C@H](C)O)cnc23)cccc1-c1cccc(-c2nc3cc(CN4CC[C@@](C)(C(=O)O)C4)cc(C#N)c3o2)c1C [Example 191, (R)-1-((7-cyano-2-(3′-(3-(((S)-2-hydroxypropylamino)methyl)-1,7-naphthyridin-8-ylamino)-2,2′-dimethylbiphenyl-3-yl)benzo[d]oxazol-5-yl)methyl)-3-methylpyrrolidine-3-carboxylic acid] |
| ≤ 0.01 | Cc1c(Nc2nccc3cc(CN4CC[C@H](O)C4)cnc23)cccc1-c1cccc(-c2nc3cc(CN4CC[C@H](C(=O)O)C4)cc(Cl)c3o2)c1C [Example 17, (S)-1-((7-chloro-2-(3′-(3-(((S)-3-hydroxypyrrolidin-1-yl)methyl)-1,7-naphthyridin-8-ylamino)-2,2′-dimethylbiphenyl-3-yl)benzo[d]oxazol-5-yl)methyl)pyrrolidine-3-carboxylic acid] |
| ≤ 0.01 | Cc1c(-c2nc3cc(CN4CC[C@@H](C(=O)O)C4)cc(Cl)c3o2)cccc1-c1cccc(-c2nc3c(s2)CNCC3)c1C [Example 70, (R)-1-((7-chloro-2-(2,2′-dimethyl-3′-(4,5,6,7-tetrahydrothiazolo[5,4-c]pyridin-2-yl)-[1,1′-biphenyl]-3-yl)benzo[d]oxazol-5-yl)methyl)pyrrolidine-3-carboxylic acid] |
| ≤ 0.01 | Cc1c(-c2nc3c(o2)CN(C(=O)CN2CC[C@@H](O)C2)C3)cccc1-c1cccc(-c2nc3cc(CN4CC[C@@](C)(C(=O)O)C4)cc(C#N)c3o2)c1C [Example 247, (R)-1-((7-cyano-2-(3′-(5-(2-((R)-3-hydroxypyrrolidin-1-yl)acetyl)-5,6-dihydro-4H-pyrrolo[3,4-d]oxazol-2-yl)-2,2′-dimethyl-[1,1′-biphenyl]-3-yl)-benzo[d]oxazol-5-yl)methyl)-3-methylpyrrolidine-3-carboxylic acid] |
| ≤ 0.01 | Cc1c(-c2nc3cc(CN4CC[C@H](C(=O)O)C4)cc(C#N)c3o2)cccc1-c1cccc(-n2cc3c(n2)CCN(C)C3)c1Cl [Example 54, (S)-1-((2-(2′-chloro-2-methyl-3′-(5-methyl-4,5,6,7-tetrahydro-2H-pyrazolo[4,3-c]pyridin-2-yl)biphenyl-3-yl)-7-cyanobenzo[d]oxazol-5-yl)methyl)pyrrolidine-3-carboxylic acid] |
| ≤ 0.01 | Cc1c(-c2nc3cc(CN[C@@H](C)C(=O)O)cc(C#N)c3o2)cccc1-c1cccc(NC(=O)c2nc3c(n2C)CCN(C)C3)c1Cl [Example 90, (S)-2-((2-(2′-chloro-3′-(1,5-dimethyl-4,5,6,7-tetrahydro-1H-imidazo[4,5-c]pyridine-2-carboxamido)-2-methylbiphenyl-3-yl)-7-cyanobenzo[d]oxazol-5-yl)methylamino)propanoic acid] |
| ≤ 0.01 | Cc1c(Nc2nccn3c(CN4CC[C@H](O)C4)cnc23)cccc1-c1cccc(-c2nc3cc(CN4CC[C@H](C(=O)O)C4)cc(C#N)c3o2)c1C [Example 152, (S)-1-((7-cyano-2-(3′-(3-(((S)-3-hydroxypyrrolidin-1-yl)methyl)imidazo[1,2-a]pyrazin-8-ylamino)-2,2′-dimethylbiphenyl-3-yl)benzo[d]oxazol-5-yl)methyl)pyrrolidine-3-carboxylic acid] |
| ≤ 0.01 | Cc1c(-c2nc3cc(CN4CC[C@@H](C(=O)O)C4)cc(C#N)c3o2)cccc1-c1cccc(NC(=O)c2nc3c(n2C)CC(C)NC3)c1Cl (stereo partly drawn) [Example 159, (3R)-1-((2-(2′-chloro-3′-(1,6-dimethyl-4,5,6,7-tetrahydro-1H-imidazo[4,5-c]pyridine-2-carboxamido)-2-methylbiphenyl-3-yl)-7-cyanobenzo[d]oxazol-5-yl)methyl)pyrrolidine-3-carboxylic acid] |
| ≤ 0.01 | Cc1c(-c2nc3cc(CN4CC(C(=O)O)C4)cc(C#N)c3o2)cccc1-c1cccc(-n2cc3c(n2)CN(C(C)C)CC3)c1Cl [Example 239, 1-((2-(2′-chloro-3′-(6-isopropyl-4,5,6,7-tetrahydro-2H-pyrazolo[3,4-c]pyridin-2-yl)-2-methylbiphenyl-3-yl)-7-cyanobenzo[d]oxazol-5-yl)methyl)azetidine-3-carboxylic acid] |
| ≤ 0.01 | CCN(C)CC(=O)N1Cc2nc(-c3cccc(-c4cccc(-c5nc6cc(CN7CC8(C(=O)O)CC7C8)cc(C#N)c6o5)c4C)c3C)sc2C1 [Example 220, 2-((7-cyano-2-(3′-(5-(2-(ethyl(methyl)amino)acetyl)-5,6-dihydro-4H-pyrrolo[3,4-d]thiazol-2-yl)-2,2′-dimethylbiphenyl-3-yl)benzo[d]oxazol-5-yl)methyl)-2-azabicyclo[2.1.1]hexane-4-carboxylic acid] |
